Results as given in patent US20220057405A1, “CELLS AND METHODS FOR EVALUATING THE ACTIVITY OF ORGANIC ANION TRANSPORTING POLYPEPTIDE 2A1 (OATP2A1)” (ABSORPTION SYSTEMS LLC, priority 2019, published 2022).
Read-outs that look alike come from different tables or passages of the source.

Key:
[1] = system: HEK293-VC-Neo cells; test: Cellular uptake of fluorescent substrate by vector control cells; format: cell-based, human; details: first 30 min of the assay (FIG. 6A, pH 7.5)
Description: (§1) Assay procedure—HEK293-OATP2A1 cells and the vector control HEK293-VC-Neo cells were plated at 250,000 cells per well on 24 well poly-D-Lysine coated (BioCoat™) plates (Corning) in complete DMEM medium and grown for 48 hrs at 37 C.
[…] For incubations with 6-CF, 1×HBSS pH 5.6 was used without pH adjustment. For the uptake of 5,6-carboxy-SNARF-1, the pH of 1×HBSS was adjusted to 7.4 with Bis-Tris/HCl. After the incubation, the media was aspirated, the cells were washed twice with ice-cold HBSS and lysed with 450 μL of the lysis buffer without the protease inhibitors. […] Fluorescence intensities were measured using λex 483(14) nm and λem 530(30) for 6-CF and λex 576(15) nm and λem 640(10) for 5,6-carboxy-SNARF-1 on a CLARIOstar® multimode microplate reader (BMG LABTECH). 20 μL of the samples used for fluorescence measurement were transferred into clear polystyrene flat-bottom 96-well plates (Thermo Fisher Scientific) and protein concentration was determined.
Concentrations of the fluorescent substrates of OATP2A1 in cell lysates were determined by measuring fluorescence intensities of the lysates and calculating concentrations of either 6-CF or 5,6-carboxy-SNARF-1 using linear calibration curves obtained from fluorescence intensities of the standard solutions of the fluorescent probes prepared in the same lysis buffer on the same 96-well assay plate. […]

[2] = molecular target: T1, OATP2A1 (Homo sapiens, UniProt Q92959); test: Cellular uptake assay with fluorescent substrate of OATP2A1 in HEK293-OATP2A1 cells; format: cell-based
Description: Key reagents—6-Carboxyfluorescein (6-CF) was purchased from Toronto Research Chemicals (Cat. No. C178325); 5,6-carboxy-SNARF-1 (5,6-Carboxy-seminaphthorhodafluor-1) was obtained from Thermo Fisher Scientific (Cat. No. C1270).
as §1
[…] For incubations with 6-CF, 1×HBSS pH 5.6 was used without pH adjustment. For the uptake of 5,6-carboxy-SNARF-1, the pH of 1×HBSS was adjusted to 7.4 with Bis-Tris/HCl. After the incubation, the media was aspirated, the cells were washed twice with ice-cold HBSS and lysed with 450 μL of the lysis buffer without the protease inhibitors. Two 150-μL samples from each well of the 24-well plates were taken and transferred into separate wells on black opaque 96-well Opti-plates (PerkinElmer). Fluorescence intensities were measured using λex 483(14) nm and λem 530(30) for 6-CF and λex 576(15) nm and λem 640(10) for 5,6-carboxy-SNARF-1 on a CLARIOstar® multimode microplate reader (BMG LABTECH). 20 μL of the samples used for fluorescence measurement were transferred into clear polystyrene flat-bottom 96-well plates (Thermo Fisher Scientific) and protein concentration was determined.
(§2) Concentrations of the fluorescent substrates of OATP2A1 in cell lysates were determined by measuring fluorescence intensities of the lysates and calculating concentrations of either 6-CF or 5,6-carboxy-SNARF-1 using linear calibration curves obtained from fluorescence intensities of the standard solutions of the fluorescent probes prepared in the same lysis buffer on the same 96-well assay plate. In order to account for differences in cell densities between the wells, protein concentration in the lysates was measured and used for calculating normalized uptake of the fluorescent substrates as follows:
(§3) The IC50 values were calculated from non-linear 4-parameter fit of the % Inhibition values vs. concentration of the inhibitors using GraphPad Prism 5 software. The same software was used for obtaining KM and Vmax values from a non-linear fit of the rate vs. substrate concentration fit into classic Michaelis-Menten equation: […]
Where: • CS is the substrate concentration in cell lysate • CP is the protein concentration in cell lysate • NUTC is the normalized uptake of the substrate in the presence of test article or inhibitor • NUHEK293-VC-Neo is the uninhibited (0.1% DMSO) normalized uptake by vector control cells • NUHEK293-OAM2A1 is the uninhibited (0.1% DMSO) normalized uptake by HEK293-OATP2A1 cells • Vt is the rate of the substrate uptake expressed as Normalized Uptake • Vmax is the calculated maximal rate of the substrate uptake by HEK293-OATP2A1 cells • S is the concentration of the fluorescent substrate of OATP2A1 • KM is the calculated Michaelis constant.

[3] = molecular target: T1, OATP2A1; test: OATP2A1 inhibition assay, cellular uptake of 6-CF with HEK293-OATP2A1 cells; format: cell-based; details: 6-CF substrate, pH 5.5
Description: as §1
(§4) Cellular uptake of the fluorescent substrates 6-CF and 5,6-carboxy-SNARF-1 was assessed by incubating the HEK293-OATP2A1 and HEK293-VC-Neo cells with 10 μM 6-CF and 5 μM 5,6-carboxy-SNARF-1 for 15 and 20 min, correspondingly. For incubations with 6-CF, 1×HBSS pH 5.6 was used without pH adjustment. For the uptake of 5,6-carboxy-SNARF-1, the pH of 1×HBSS was adjusted to 7.4 with Bis-Tris/HCl. After the incubation, the media was aspirated, the cells were washed twice with ice-cold HBSS and lysed with 450 μL of the lysis buffer without the protease inhibitors. Two 150-μL samples from each well of the 24-well plates were taken and transferred into separate wells on black opaque 96-well Opti-plates (PerkinElmer). Fluorescence intensities were measured using λex 483(14) nm and λem 530(30) for 6-CF and λex 576(15) nm and λem 640(10) for 5,6-carboxy-SNARF-1 on a CLARIOstar® multimode microplate reader (BMG LABTECH). 20 μL of the samples used for fluorescence measurement were transferred into clear polystyrene flat-bottom 96-well plates (Thermo Fisher Scientific) and protein concentration was determined.
All compounds were acquired from Sigma-Aldrich as solid powders and 10 mM stocks were made either in DMSO or HBSS (see Table 1). Serial dilutions of the compounds were made using 3.162-fold […] dilution factor either with DMSO or HBSS at the concentrations 1,000 higher than the final concentrations in the assay. […]
as §2
(§5) Using uninhibited normalized uptake values obtained with HEK293-OATP2A1 and HEK293-VC-Neo cells in 0.1% DMSO in HBSS as the high and low controls of the assay, the % Control and % Inhibition values were calculated as follows: […]
The IC50 values were calculated from non-linear 4-parameter fit of the % Inhibition values vs. concentration of the inhibitors using GraphPad Prism 5 software. […]

[4] = molecular target: T1, OATP2A1; details: published potencies of the OATP2A1 inhibitors; read-out: IC50, Literature (Kamo et al., J Pharma Sci, 2017); cited from earlier work
[5] = molecular target: T1, OATP2A1; test: OATP2A1 inhibition assay, cellular uptake of 5,6-Carboxy-SNARF with HEK293-OATP2A1 cells; format: cell-based; details: HEK293-OATP2A1 cells, 5,6-Carboxy-SNARF substrate, pH 7.4
Description: as §1, §4
All compounds were acquired from Sigma-Aldrich as solid powders and 10 mM stocks were made either in DMSO or HBSS (see Table 1). Serial dilutions of the compounds were made using 3.162-fold […] dilution factor either with DMSO or HBSS at the concentrations 1,000 higher than the final concentrations in the assay. These 1,000× solutions were further diluted 1:100 with HBSS in 2-mL polypropylene deep 96-well block (VWR) to make 10× working stock solutions of the inhibitors.
HEK293-OATP2A1 and HEK293-VC-Neo cells were cultured. The media was aspirated and 800 μL of HBSS was added to each well followed by the addition of 100 μL of the 10× working stock solutions of the inhibitors. The plates were incubated for 5 min at RT, and the assay was started by the addition of 100 μL of either 100 μM 6-CF or 50 μM 5,6-carboxy-SNARF-1 in HBSS.
as §2, §5, §3

| Compound | IC50 [3] [nM] | IC50 [4] [nM] | IC50 [5] [nM] | also measured |
| --- | --- | --- | --- | --- |
| 5,6-Carboxy-seminaphthorhodafluor-1 [5,6-Carboxy-SNARF] |  |  |  | initial rate of the uptake [1]: 0.7 pmol/mg/min; S:B in uptake assay ([2]; HEK293-OATP2A1 cell line, time-course, pH 7.5 (FIG. 6A)): 142; initial rate of the uptake ([2]; HEK293-OATP2A1 cells, first 30 min of the assay (FIG. 6A, pH 7.5)): 99.1 pmol/mg/min; Km ([2]; OATP2A1-mediated uptake in HEK293-OATP2A1 cell line, Michaelis-Menten fit (FIG. 5)): 29 ± 9 µM; transporter specificity ([2]; OATP2A1 vs. OATP2B1 transporters (FIG. 4A)): specific for OATP2A1 vs. OATP2B1 |
| O=C(O)c1ccc2c(c1)C1(OC2=O)c2ccc(O)cc2Oc2cc(O)ccc21 [Compound 6-CF, 6-Carboxyfluorescein] |  |  |  | rate of uptake by HEK293-OATP2A1 cell line compared to the control cells ([2]; FIG. 2, vs vector control cells HEK-VC-Neo): ≥ 230 fold; uptake by HEK293-OATP2A1 cell line vs rate of uptake by the control cells ([2]; pH 6.5 (FIG. 6B)): 233 times; uptake by HEK293-OATP2A1 cell line vs rate of uptake by the control cells ([2]; sentence following the initial rates of FIG. 6A): more than 1400 times |
| CCCCc1nc(Cl)c(CO)n1Cc1ccc(-c2ccccc2-c2nn[nH]n2)cc1 [Losartan] | 1280 | 1760 | 1210 |  |
| CCCc1nc(C(C)(C)O)c(C(=O)O)n1Cc1ccc(-c2ccccc2-c2nnn[nH]2)cc1 [Olmesartan] | 492 | 970 | 554 |  |
| O=C(Nc1cccc2c(=O)cc(-c3nnn[nH]3)oc12)c1ccc(OCCCCc2ccccc2)cc1 [Pranlukast] | 142 | 550 | 148 |  |
| Cc1ccc(C(=O)Nc2ccc(S(=O)(=O)O)c3cc(S(=O)(=O)O)cc(S(=O)(=O)O)c23)cc1NC(=O)c1cccc(NC(=O)Nc2cccc(C(=O)Nc3cc(C(=O)Nc4ccc(S(=O)(=O)O)c5cc(S(=O)(=O)O)cc(S(=O)(=O)O)c45)ccc3C)c2)c1 [Suramin] | 222 | 170 | 186 |  |
| COc1cc(C(=O)NS(=O)(=O)c2ccccc2C)ccc1Cc1cn(C)c2ccc(NC(=O)OC3CCCC3)cc12 [Zafirlukast] |  | 1600 | 1110 |  |
